# Tested on: 931267-113-T-J1-PDC multicell spheroid viability
# Test: Anticancer human tumor 931267-113-T-J1-PDC patient-derived colon adenocarcinoma cell line growth inhibition [PI3K]
# Details: for IC50: curve of first compound; for viability, T/C: stronger effect = lower value
# How it was run: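 We assembled tumor spheroids that included a stromal compartment of HUVEC and MSCs, then exposed them to targeted agents alone and together with PI3K pathway inhibitors. Concentration series descended by half-log from clinically achievable Cmax levels. Viability served as the endpoint.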
# [1] = second compound 0.00316 µM, first compound 0.0316 µM
# [2] = second compound 0.00316 µM, first compound 0.1 µM
# [3] = second compound 0.00316 µM, first compound 0.316 µM
# [4] = second compound 0.00316 µM, first compound 1 µM
# [5] = second compound 0.00316 µM, first compound 3.16 µM
# [6] = second compound 0.00316 µM, first compound 10 µM
# [7] = second compound 0.01 µM, first compound 0.0316 µM
# [8] = second compound 0.01 µM, first compound 0.1 µM
# [9] = second compound 0.01 µM, first compound 0.316 µM
# [10] = second compound 0.01 µM, first compound 1 µM
# [11] = second compound 0.01 µM, first compound 3.16 µM
# [12] = second compound 0.01 µM, first compound 10 µM
# [13] = second compound 0.0316 µM, first compound 0.0316 µM
# [14] = second compound 0.0316 µM, first compound 0.1 µM
# [15] = second compound 0.0316 µM, first compound 0.316 µM
# [16] = second compound 0.0316 µM, first compound 1 µM
# [17] = second compound 0.0316 µM, first compound 3.16 µM
# [18] = second compound 0.0316 µM, first compound 10 µM
# [19] = second compound 0.1 µM, first compound 0.0316 µM
# [20] = second compound 0.1 µM, first compound 0.1 µM
# [21] = second compound 0.1 µM, first compound 0.316 µM
# [22] = second compound 0.1 µM, first compound 1 µM
# [23] = second compound 0.1 µM, first compound 3.16 µM
# [24] = second compound 0.1 µM, first compound 10 µM
# [25] = second compound 0.316 µM, first compound 0.0316 µM
# [26] = second compound 0.316 µM, first compound 0.1 µM
# [27] = second compound 0.316 µM, first compound 0.316 µM
# [28] = second compound 0.316 µM, first compound 1 µM
# [29] = second compound 0.316 µM, first compound 3.16 µM
# [30] = second compound 0.316 µM, first compound 10 µM
# [31] = second compound 1 µM, first compound 0.0316 µM
# [32] = second compound 1 µM, first compound 0.1 µM
# [33] = second compound 1 µM, first compound 0.316 µM
# [34] = second compound 1 µM, first compound 1 µM
# [35] = second compound 1 µM, first compound 3.16 µM
# [36] = second compound 1 µM, first compound 10 µM
# 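Also: viability read 7 days after compound addition.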
structure (smiles),measurement,setting,value
CCCS(=O)(=O)Nc1ccc(F)c(C(=O)c2c[nH]c3ncc(-c4ccc(Cl)cc4)cc23)c1F + COc1c(OCCCN2CCOCC2)ccc2c3n(c(=NC(=O)c4cnc(N)nc4)nc12)CCN3,IC50,second compound 0.00316 µM,6.3 µM
same,IC50,second compound 0.01 µM,5.98 µM
same,IC50,second compound 0.0316 µM,5.83 µM
same,IC50,second compound 0.1 µM,4.99 µM
same,IC50,second compound 0.316 µM,3.66 µM
same,IC50,second compound 1 µM,< 0.0316 µM
same,"viability, T/C",[1],111%
same,"viability, T/C",[2],116%
same,"viability, T/C",[3],104%
same,"viability, T/C",[4],125%
same,"viability, T/C",[5],127%
same,"viability, T/C",[6],5.18%
same,"viability, T/C",[7],102%
same,"viability, T/C",[8],101%
same,"viability, T/C",[9],108%
same,"viability, T/C",[10],109%
same,"viability, T/C",[11],110%
same,"viability, T/C",[12],5.04%
same,"viability, T/C",[13],87.8%
same,"viability, T/C",[14],92.2%
same,"viability, T/C",[15],93.3%
same,"viability, T/C",[16],111%
same,"viability, T/C",[17],101%
same,"viability, T/C",[18],8.61%
same,"viability, T/C",[19],75.4%
same,"viability, T/C",[20],68.6%
same,"viability, T/C",[21],77.2%
same,"viability, T/C",[22],85.2%
same,"viability, T/C",[23],77.6%
same,"viability, T/C",[24],9.09%
same,"viability, T/C",[25],55.8%
same,"viability, T/C",[26],51.3%
same,"viability, T/C",[27],59.2%
same,"viability, T/C",[28],56.7%
same,"viability, T/C",[29],57.2%
same,"viability, T/C",[30],8.55%
same,"viability, T/C",[31],36.3%
same,"viability, T/C",[32],39.5%
same,"viability, T/C",[33],36.3%
same,"viability, T/C",[34],41.4%
same,"viability, T/C",[35],39.7%
same,"viability, T/C",[36],10.2%
C[C@@H](NC(=O)c1ncnc(N)c1Cl)c1ncc(C(=O)Nc2cc(C(F)(F)F)c(Cl)cn2)s1 + COc1c(OCCCN2CCOCC2)ccc2c3n(c(=NC(=O)c4cnc(N)nc4)nc12)CCN3,IC50,second compound 0.00316 µM,> 10 µM
same,IC50,second compound 0.01 µM,> 10 µM
same,IC50,second compound 0.0316 µM,> 10 µM
same,IC50,second compound 0.1 µM,4.05 µM
same,IC50,second compound 0.316 µM,1.32 µM
same,IC50,second compound 1 µM,< 0.0316 µM
same,"viability, T/C",[1],109%
same,"viability, T/C",[2],117%
same,"viability, T/C",[3],106%
same,"viability, T/C",[4],111%
same,"viability, T/C",[5],105%
same,"viability, T/C",[6],76%
same,"viability, T/C",[7],108%
same,"viability, T/C",[8],102%
same,"viability, T/C",[9],104%
same,"viability, T/C",[10],115%
same,"viability, T/C",[11],96.5%
same,"viability, T/C",[12],74.2%
same,"viability, T/C",[13],95.3%
same,"viability, T/C",[14],94.4%
same,"viability, T/C",[15],94.7%
same,"viability, T/C",[16],92.1%
same,"viability, T/C",[17],76.6%
same,"viability, T/C",[18],51%
same,"viability, T/C",[19],86.5%
same,"viability, T/C",[20],75.8%
same,"viability, T/C",[21],76.6%
same,"viability, T/C",[22],65%
same,"viability, T/C",[23],57.2%
same,"viability, T/C",[24],33.7%
same,"viability, T/C",[25],58.9%
same,"viability, T/C",[26],58.8%
same,"viability, T/C",[27],59.4%
same,"viability, T/C",[28],51.4%
same,"viability, T/C",[29],41.8%
same,"viability, T/C",[30],25.1%
same,"viability, T/C",[31],45.4%
same,"viability, T/C",[32],41%
same,"viability, T/C",[33],42.6%
same,"viability, T/C",[34],35.2%
same,"viability, T/C",[35],32.1%
same,"viability, T/C",[36],18.5%
Cn1ncnc1[C@H]1c2n[nH]c(=O)c3cc(F)cc(c23)N[C@@H]1c1ccc(F)cc1 + COc1c(OCCCN2CCOCC2)ccc2c3n(c(=NC(=O)c4cnc(N)nc4)nc12)CCN3,IC50,second compound 0.00316 µM,> 0.1 µM
same,IC50,second compound 0.01 µM,> 0.1 µM
same,IC50,second compound 0.0316 µM,> 0.1 µM
same,IC50,second compound 0.1 µM,> 0.1 µM
same,IC50,second compound 0.316 µM,0.00113 µM
same,IC50,second compound 1 µM,< 0.000316 µM
same,"viability, T/C","second compound 0.00316 µM, first compound 0.000316 µM",103%
same,"viability, T/C","second compound 0.00316 µM, first compound 0.001 µM",107%
same,"viability, T/C","second compound 0.00316 µM, first compound 0.00316 µM",107%
same,"viability, T/C","second compound 0.00316 µM, first compound 0.01 µM",98.7%
same,"viability, T/C",[1],106%
same,"viability, T/C",[2],93.9%
same,"viability, T/C","second compound 0.01 µM, first compound 0.000316 µM",103%
same,"viability, T/C","second compound 0.01 µM, first compound 0.001 µM",97.9%
same,"viability, T/C","second compound 0.01 µM, first compound 0.00316 µM",94.2%
same,"viability, T/C","second compound 0.01 µM, first compound 0.01 µM",89.2%
same,"viability, T/C",[7],93%
same,"viability, T/C",[8],91.3%
same,"viability, T/C","second compound 0.0316 µM, first compound 0.000316 µM",85.2%
same,"viability, T/C","second compound 0.0316 µM, first compound 0.001 µM",88.9%
same,"viability, T/C","second compound 0.0316 µM, first compound 0.00316 µM",82.1%
same,"viability, T/C","second compound 0.0316 µM, first compound 0.01 µM",83%
same,"viability, T/C",[13],81.8%
same,"viability, T/C",[14],79%
same,"viability, T/C","second compound 0.1 µM, first compound 0.000316 µM",70.2%
same,"viability, T/C","second compound 0.1 µM, first compound 0.001 µM",68.5%
same,"viability, T/C","second compound 0.1 µM, first compound 0.00316 µM",70.7%
same,"viability, T/C","second compound 0.1 µM, first compound 0.01 µM",66%
same,"viability, T/C",[19],69%
same,"viability, T/C",[20],61.3%
same,"viability, T/C","second compound 0.316 µM, first compound 0.000316 µM",54.3%
same,"viability, T/C","second compound 0.316 µM, first compound 0.001 µM",52.5%
same,"viability, T/C","second compound 0.316 µM, first compound 0.00316 µM",46.1%
same,"viability, T/C","second compound 0.316 µM, first compound 0.01 µM",43.4%
same,"viability, T/C",[25],46.4%
same,"viability, T/C",[26],43.4%
same,"viability, T/C","second compound 1 µM, first compound 0.000316 µM",33.3%
same,"viability, T/C","second compound 1 µM, first compound 0.001 µM",34.1%
same,"viability, T/C","second compound 1 µM, first compound 0.00316 µM",30.9%
same,"viability, T/C","second compound 1 µM, first compound 0.01 µM",34.4%
same,"viability, T/C",[31],36.6%
same,"viability, T/C",[32],30.3%
